Data taken from paper PMC10641813 (Journal of Medicinal Chemistry, 2023).
Values joined by “and” are separate entries in the source; they are usually repeats but may differ in a detail not shown here. Identical values can stand only once.

Assays:
HT29/DX cells [1] = assay: Viability of HT29/DX cells with DOX alone or coincubated with 15 (WST-1); type: cell-based, human; conditions: 15 at 1, 10, 100 nM coincubated with 5 μM DOX, 72 h
Description: (§1) Cells were seeded in 96-well plates.

[2] = test system: HT29, HT29/DX, MDCK and MDCK/P-gp cells; assay: Cytotoxicity of 15 alone (WST-1 viability); conditions: 1–100 nM 15 alone, 72 h, four cell lines
Description: Cell lines were obtained from the American Tissue Culture Collection (ATCC), unless specified otherwise. Cells were grown in Dulbecco’s modified Eagle’s medium (D-MEM) supplemented with 10% fetal bovine serum (FBS) at 37 °C with 5% CO2. In all experiments, 300,000 cells were plated in 9 cm^2 dishes and exposed to test compound dissolved in DMSO (0.1% final concentration) at the indicated concentrations. […] Cells were kept at low passage, returning to the original frozen stocks every 3–4 months. […] Human chemosensitive HT29 colon cancer cells were purchased from ATCC (Manassas, VA). […] MDCK and MDCK/P-gp (a gift of Prof. P. Borst, NKI-AVL Institute, Amsterdam, The Netherlands) were grown in DMEM high glucose supplemented with 10% FBS, 1% penicillin, 1% v/v penicillin–streptomycin, and 1% v/v glutamine. […] Cells were seeded in 96-well plates. […] Cell viability was evaluated using the WST-1 assay (Sigma-Merck), as per the manufacturer’s instructions, using a Packard EL340 microplate reader (Bio-Tek Instruments, Winooski, VT). The absorbance units of the untreated cells were considered 100%; the absorbance units of the other experimental conditions were expressed as a percentage versus the absorbance units of the untreated cells.

[3] = test system: Wnt target genes Fgf20 and Sall4; assay: Fgf20 and Sall4 mRNA levels in HCT116 cells (qPCR); type: cell-based, human
Description: Total mRNA was isolated from cells with TriReagent (#R2050–1–200 Zymo Research), and complementary DNA (cDNA) was synthesized by the Sensifast cDNA synthesis kit (#BIO-65054 Bioline). Quantitative PCR was performed with SensiFast Sybr Lo-Rox Mix (#BIO-94020 Bioline), using an Applied Biosystems ViiA 7 Real-Time PCR System instrument (doi: 10.1038/s41389-019-0175-6) and the following amplification primers: • β-actin forward: […]; • β-actin reverse: […]; • Fgf20 forward: […]; • Fgf20 reverse: […]; • Sall4 forward: […]; • Sall4 reverse: […].

MCF-7 cells = assay: Inhibition of growth of MCF-7 cells; type: cell-based, human; conditions: human nonmetastatic breast cancer epithelial cells
Description: (§2) ; 11 and 15, NCI/ADR-RES and OVCAR-8 cells) to 4.8 (19, OVCAR-8 cells). […] . […] Cells were seeded in 96-well plates.

HT29/DX cells [4] = assay: Intracellular accumulation of DOX in HT29/DX cells; type: cell-based, human; conditions: 5 μM DOX 3 h, 15 at 1, 10, 100 nM
Description: (§3) In this model, also at the highest concentration (100 nM), the compound was not able to fully restore the accumulation of the drug to the intracellular level of MDCK cells, which were devoid of P-gp.
(§4) Figure S5. Dose-dependent viability of HT29 and HT29/DX (A), MDCK and MDCK/P-gp (B) cells, incubated with increasing concentrations (0-10 µM) of 15 for 72 h, measured with a spectrophotometric assay. Data are means ± SD (n = 3). **p<0.01, ***p<0.001: versus untreated cells (“0”). […]
(§5) drug retention was measured spectrofluorimetrically. Data are means ± SD (n=3)., ***p<0.001: versus HT29 or […]

tubulin = assay: Tubulin assembly (polymerization) assay; type: biochemical; conditions: at 20 μM
Description: The reaction mixtures contained 0.8 M monosodium glutamate (pH 6.6 with HCl in a 2 M stock solution), 10 μM tubulin, 4% (v/v) DMSO, and varying concentrations of compound. […] The extent of the reaction was measured.

HT29 cells = assay: Viability of HT29 cells with DOX alone or coincubated with 15 (WST-1); type: cell-based, human; conditions: 15 at 1, 10, 100 nM coincubated with 5 μM DOX, 72 h
Description: as §1

HCT116 cells = assay: Inhibition of growth of HCT116 cells (MTT); conditions: read-out: IC50 HCT116; human colorectal carcinoma cells; combinations: each compound at its IC50 concentration
Description: (§7) In drug combination studies, each compound was used at the corresponding IC50 concentration.
(§8) Cells were grown in Dulbecco’s modified Eagle’s medium (D-MEM) supplemented with 10% fetal bovine serum (FBS) at 37 °C with 5% CO2. In all experiments, 300,000 cells were plated in 9 cm^2 dishes and exposed to test compound dissolved in DMSO (0.1% final concentration) at the indicated concentrations. […] Cells were kept at low passage, returning to the original frozen stocks every 3–4 months.

[5] = test system: human primary T lymphocytes; assay: Toxicity on human primary T lymphocytes (annexin V/propidium iodide flow cytometry); conditions: 30 μM, 72 h, healthy/normal T cells
Description: After 72 h, the frequency of late apoptotic cells was assayed by staining with annexin V and propidium iodide.
Potential toxicity on healthy cells was evaluated by treating human primary T lymphocytes from two healthy donors with 30 μM 15 or with a control vehicle (DMSO). Healthy donors’ peripheral blood mononuclear cells (PBMCs) were isolated by Lymphoprep (Nycomed) gradient centrifugation. T lymphocytes were negatively selected from PBMCs using magnetic Dynabeads Untouched Human T Cells Kit (Thermo Fisher Scientific) following the manufacturer’s instructions. Apoptotic cell death was evaluated using APC Annexin-V Apoptosis Detection Kit with PI (Thermo Fisher Scientific). […] Cells were then stained using annexin-V/APC and propidium iodide according to the manufacturer’s instruction. Cell populations were acquired using a FACS Canto II flow cytometer (BD Biosciences). Flow cytometric analysis was performed using Flow Jo Flow Cytometric Analysis Software.

NCI/ADR-RES cells = assay: Inhibition of growth of NCI/ADR-RES DOX-resistant cells; type: cell-based, human; conditions: DOX-resistant cell line derived from OVCAR-8, 96 h
Description: as §2

BT-549 cells = assay: Inhibition of BT-549 TNBC cell growth (hypoxia, cell counting); conditions: 72 h, 1% O2
Description: (§9) Cells were grown in Dulbecco’s modified Eagle’s medium (D-MEM) supplemented with 10% fetal bovine serum (FBS) at 37 °C with 5% CO2. In all experiments, 300,000 cells were plated in 9 cm^2 dishes and exposed to test compound dissolved in DMSO (0.1% final concentration) at the indicated concentrations. […] Cells were kept at low passage, returning to the original frozen stocks every 3–4 months. Hypoxic culture conditions were realized in the presence of 1% O2 and 5% CO2. […] After 72 h of incubation at 37 °C with 1% O2 and 5% CO2, cells were trypsinized, and cell counting was performed with the MACSQuant analyzer (Miltenyi Biotec).[76]

[6] = test system: β-catenin and MYC in HCT116 cells; assay: β-Catenin and c-Myc levels in HCT116 cells (Western blot); type: cell-based, human; conditions: LiCl 50 mM, 24 h
Description: (§6) Western blot was performed as previously described.[79] […] Cell lysates were subjected to SDS-polyacrylamide gel electrophoresis and transferred to a nitrocellulose membrane. The membrane was blocked, washed, and incubated with primary antibodies at 37 °C overnight [anti-β-catenin (D10A8) XP mAb #8480 (Cell Signaling), anti-cMyc #9402S (Cell Signaling), anticleaved caspase 3 (Asp175) #9661 (Cell Signaling), and anti-PARP #9542S (Cell Signaling)]. After the membrane was washed, it was incubated with secondary antibodies at 37 °C for 30 min. The membrane was washed again with Tris-buffered saline/Tween-20, and the samples were exposed and imaged using the WesternBright ECL solution (#K-12045-D50 Advansta).

MDCK/P-gp cells [7] = assay: Viability of MDCK/P-gp cells with DOX alone or coincubated with 15 (WST-1); type: cell-based, canine; conditions: 15 at 1, 10, 100 nM coincubated with 5 μM DOX, 72 h
Description: as §1

hCA IX = target: T1, hCA IX (Homo sapiens, UniProt Q16790); assay: Stopped flow CO2 hydrase assay, hCA IX; type: biochemical; conditions: stopped flow technique, mean from three assays
T1 construct: made in house

[8] = test system: cleaved PARP and cleaved caspase-3 in HCT116 cells; assay: Markers of apoptosis in HCT116 cells (Western blot); type: cell-based, human; conditions: increasing concentrations, 72 h
Text: Detection of cleaved poly(ADPribose) polymerase (PARP) by antibodies is considered a prominent marker of apoptosis. […] Overexpression of the 24 kDa N-terminal fragment inhibits DNA repair and ADPribose formation and stimulates apoptosis,[45] with consequent increase of PARP full-length/cleaved ratio and a darker cleaved band. During apoptosis, caspase-3 is a major cause of proteolysis. Detection of cleaved caspase-3 is also a reliable marker of apoptosis since it allows the quantification of cells that are dying or have died by apoptosis.[46]
as §6

[9] = test system: Wnt/β-catenin signaling pathway; assay: Wnt reporter assay (TOPFlash/FOPFlash luciferase) in HEK293T cells; conditions: HEK 293T cells, LiCl 50 mM
Description: HEK293T cells were seeded at 2 × 10^4 cells/cm^2 in triplicate in a 24-well plate.

SW480 cells = assay: Inhibition of growth of SW480 cells (XTT); conditions: read-out: IC50 SW480; human colorectal carcinoma cells; combinations: each compound at its IC50 concentration
Description: as §7, §8

MDA-MB 231 cells = assay: Inhibition of MDA-MB 231 TNBC cell growth (hypoxia, cell counting); conditions: 72 h, 1% O2
Description: as §9

P-gp [10] = target: T2, P-gp (Homo sapiens, UniProt P08183); assay: P-gp ATPase activity, protein immunopurified from HT29/DX cells; conditions: for Pgp activity (rate of ATP hydrolysis) HT29/DX: 3 h, single replicates of I-III exp
Description: (§10) 100 μg of each immunopurified protein was incubated for 30 min at 37 °C with 50 μL of the reaction mixture (25 mM Tris/HCl, 3 mM ATP, 50 mM KCl, 2.5 mM MgSO4, 3 mM dithiothreitol, 0.5 mM EGTA, 2 mM ouabain, 3 mM NaN3; pH 7.0). […] After 30 min incubation at room temperature, the absorbance of the phosphate hydrolyzed from ATP was measured at 620 nm, using a Packard EL340 microplate reader. The absorbance was converted into nmoles hydrolyzed phosphate (Pi)/min/mg protein, according to the titration curve previously prepared.

MDCK cells = assay: Viability of MDCK cells with DOX alone or coincubated with 15 (WST-1); type: cell-based, canine; conditions: MDCK cells, 15 at 1, 10, 100 nM coincubated with 5 μM DOX, 72 h
Description: as §1

OVCAR-8 cells = assay: Inhibition of growth of OVCAR-8 cells; type: cell-based, human; conditions: ovarian tumor cell line 8, 96 h
Description: as §2

MDCK/P-gp cells [11] = assay: Intracellular accumulation of DOX in MDCK/P-gp cells; type: cell-based, canine; conditions: 5 μM DOX 3 h, 15 at 1, 10, 100 nM
Description: as §3, §4, §5

P-gp [12] = target: T2, P-gp; assay: P-gp ATPase activity, protein immunopurified from MDCK/P-gp cells; conditions: for Pgp activity (rate of ATP hydrolysis) MDCK-Pgp: 3 h, single replicates of I-III exp
Description: as §10

SW620 cells = assay: Inhibition of growth of SW620 cells (XTT); conditions: read-out: IC50 SW620; human colorectal carcinoma cells; combinations: each compound at its IC50 concentration
Description: as §7, §8

T2 sequence (P08183 whole entry): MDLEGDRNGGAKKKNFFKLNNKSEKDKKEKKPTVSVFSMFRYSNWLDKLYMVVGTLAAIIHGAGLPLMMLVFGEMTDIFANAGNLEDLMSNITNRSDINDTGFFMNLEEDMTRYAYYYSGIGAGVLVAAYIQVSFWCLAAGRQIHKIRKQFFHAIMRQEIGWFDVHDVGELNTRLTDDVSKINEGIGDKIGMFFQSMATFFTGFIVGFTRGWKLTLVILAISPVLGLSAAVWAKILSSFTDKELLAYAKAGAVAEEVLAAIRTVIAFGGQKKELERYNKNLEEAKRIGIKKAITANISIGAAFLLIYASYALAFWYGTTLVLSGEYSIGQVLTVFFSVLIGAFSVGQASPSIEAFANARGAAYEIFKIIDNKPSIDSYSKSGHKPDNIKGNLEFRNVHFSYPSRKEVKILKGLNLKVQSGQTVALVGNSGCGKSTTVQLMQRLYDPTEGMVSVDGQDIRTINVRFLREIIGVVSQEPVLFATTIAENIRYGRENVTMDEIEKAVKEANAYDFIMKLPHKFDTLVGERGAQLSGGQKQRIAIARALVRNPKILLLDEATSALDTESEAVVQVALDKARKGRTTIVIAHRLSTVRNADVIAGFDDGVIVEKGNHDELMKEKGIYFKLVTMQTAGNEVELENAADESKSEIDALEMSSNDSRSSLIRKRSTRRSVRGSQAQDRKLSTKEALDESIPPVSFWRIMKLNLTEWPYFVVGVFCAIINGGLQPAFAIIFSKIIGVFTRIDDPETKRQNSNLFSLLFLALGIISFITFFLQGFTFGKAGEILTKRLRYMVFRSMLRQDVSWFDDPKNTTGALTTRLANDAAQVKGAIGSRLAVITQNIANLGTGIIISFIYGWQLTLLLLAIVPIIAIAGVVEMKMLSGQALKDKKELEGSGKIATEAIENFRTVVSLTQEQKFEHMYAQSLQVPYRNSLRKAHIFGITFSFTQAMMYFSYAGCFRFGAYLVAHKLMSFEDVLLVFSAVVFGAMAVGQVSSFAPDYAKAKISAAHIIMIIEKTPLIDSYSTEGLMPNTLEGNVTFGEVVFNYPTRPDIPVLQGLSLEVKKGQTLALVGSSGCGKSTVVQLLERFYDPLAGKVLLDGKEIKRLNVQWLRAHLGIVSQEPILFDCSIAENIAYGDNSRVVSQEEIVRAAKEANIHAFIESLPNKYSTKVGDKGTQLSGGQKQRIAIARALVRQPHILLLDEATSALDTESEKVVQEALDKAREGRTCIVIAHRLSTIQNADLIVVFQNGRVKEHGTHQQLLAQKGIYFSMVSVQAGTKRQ

4-(3-Phenyl-4-(3,4,5-trimethoxybenzoyl)-1H-pyrrol-1-yl)benzenesulfonamide [Compound 15]
cell viability compared with DOX alone (HT29/DX cells [1]): decreased cell viability in a dose-dependent manner | cell viability [2]: > 75% | expression of Wnt target genes Fgf20 and Sall4 [3]: significantly reduced the expression | IC50 (MCF-7 cells): 1.9 to 2.1 µM and 1.9 µM | intracellular accumulation of DOX (HT29/DX cells [4]): strong dose-dependent increase | inhibition of tubulin assembly (tubulin): partial inhibition | cell viability compared with DOX alone (HT29 cells): did not further reduce cell viability | IC50 (HCT116 cells): 8.7 ± 1.4 µM | increase in cell death compared to the control vehicle [5]: 6–8% | IC50 (NCI/ADR-RES cells): 1.9 µM and 1.9 to 2.1 µM and 2.1 µM | Inhibition of BT-549 TNBC cell growth (BT-549 cells): significantly impaired cell growth | β-catenin and MYC levels [6]: marked reduction | cell viability compared with DOX alone (MDCK/P-gp cells [7]): decreased cell viability in a dose-dependent manner | Ki (hCA IX): 0.0241 µM | cleaved PARP and cleaved caspase-3 levels [8]: increments of cleaved PARP and cleaved caspase-3 | TOP reporter activity ([9]; increasing concentrations, 24 h): significant and dose-dependent inhibition | FOP reporter activity ([9]; negative control reporter): did not significantly prevent the activity | IC50 (SW480 cells): 17.7 ± 1.3 µM | Inhibition of MDA-MB 231 TNBC cell growth (MDA-MB 231 cells): potent antiproliferative effect | Pgp activity (rate of ATP hydrolysis) HT29/DX (P-gp [10]; 15 at 1 nM): 0.7 nmol Pi × min-1 × mg protein-1 (2×) and 0.8 nmol Pi × min-1 × mg protein-1 (3×) and 0.9 nmol Pi × min-1 × mg protein-1 and 0.6 nmol Pi × min-1 × mg protein-1 (2×) and 1.0 nmol Pi × min-1 × mg protein-1 | Pgp activity (rate of ATP hydrolysis) HT29/DX (P-gp [10]; 15 at 10 nM): 0.4 nmol Pi × min-1 × mg protein-1 (3×) and 0.6 nmol Pi × min-1 × mg protein-1 (3×) and 0.5 nmol Pi × min-1 × mg protein-1 (2×) and 0.7 nmol Pi × min-1 × mg protein-1 | Pgp activity (rate of ATP hydrolysis) HT29/DX (P-gp [10]; 15 at 100 nM): 0.1 nmol Pi × min-1 × mg protein-1 and 0.2 nmol Pi × min-1 × mg protein-1 (3×) and 0.3 nmol Pi × min-1 × mg protein-1 (5×) | effect on P-gp activity (P-gp [10]; HT29/DX, starting at 10 nM): reduced P-gp activity | cell viability compared with DOX alone (MDCK cells): did not further reduce cell viability | IC50 (OVCAR-8 cells): 1.9 to 2.1 µM and 1.9 µM | intracellular accumulation of DOX (MDCK/P-gp cells [11]): increasing DOX accumulation | Pgp activity (rate of ATP hydrolysis) MDCK-Pgp (P-gp [12]; 15 at 1 nM): 5.2 nmol Pi × min-1 × mg protein-1 and 5.6 nmol Pi × min-1 × mg protein-1 (2×) and 5.4 nmol Pi × min-1 × mg protein-1 (2×) and 5.5 nmol Pi × min-1 × mg protein-1 and 5.9 nmol Pi × min-1 × mg protein-1 and 5.1 nmol Pi × min-1 × mg protein-1 and 5.3 nmol Pi × min-1 × mg protein-1 | Pgp activity (rate of ATP hydrolysis) MDCK-Pgp (P-gp [12]; 15 at 10 nM): 3.4 nmol Pi × min-1 × mg protein-1 (3×) and 3.2 nmol Pi × min-1 × mg protein-1 (3×) and 3.0 nmol Pi × min-1 × mg protein-1 and 3.9 nmol Pi × min-1 × mg protein-1 and 3.8 nmol Pi × min-1 × mg protein-1 | Pgp activity (rate of ATP hydrolysis) MDCK-Pgp (P-gp [12]; 15 at 100 nM): 2.1 nmol Pi × min-1 × mg protein-1 and 2.4 nmol Pi × min-1 × mg protein-1 (2×) and 2.3 nmol Pi × min-1 × mg protein-1 and 1.6 nmol Pi × min-1 × mg protein-1 and 1.8 nmol Pi × min-1 × mg protein-1 (2×) and 1.7 nmol Pi × min-1 × mg protein-1 and 1.5 nmol Pi × min-1 × mg protein-1 | effect on P-gp activity (P-gp [12]; MDCK/P-gp, starting at 10 nM): reduced P-gp activity | IC50 (SW620 cells): 23.8 ± 1.4 µM
